# Laboratory results: patent US10973868B2, “Composition for topical use based on a carnosine-magnesium complex” (Outplay Inc., priority 2016, dated 2021)
# Read-outs that look alike come from different tables or passages of the source.
# Columns and labels:
# [1] = system: adults with chronic schizophrenia; experiment: L-carnosine adjunctive treatment in chronic schizophrenia, strategic target detection test; format: in vivo, human; details: 2 g/day adjunctive, 3 months, vs placebo
# Description: Improved Cognition In Schizophrenia: Targeting glutamatergic dysfunction provides an exciting opportunity to improve cognitive impairment in schizophrenia. One treatment approach has targeted inadequate antioxidant defenses at glutamatergic synapses. […] We conducted a preliminary study to test the hypothesis that L-carnosine, an antioxidant and anti-glycation agent which is co-localized and released with glutamate would improve executive dysfunction, a cognitive domain associated with glutamate. Seventy-five symptomatically stable adults with chronic schizophrenia were randomly assigned to L-carnosine as adjunctive treatment (2 g/day) or a matched placebo in a double-blind manner for 3 months. […] The recommended dosage is 4-6 ml of the exemplary composition of the topical composition illustrated above four times a day applied to all four limbs.
# [2] = aqueous solution; cited from earlier work
# horse fibre types = details: cited from earlier work
# [3] = system: muscle fibres of Rana Temporaria; details: 15 mM of carnosine; cited from earlier work
# [4] = system: rat extensor digitorum longus muscle fibres; details: mechanically skinned fibres; cited from earlier work
# [5] = system: children with autistic spectrum disorders; details: after 8 weeks, P<0.05; cited from earlier work
# mice = details: cited from earlier work
structure (smiles),measurement,setting,value
"NCCC(=O)N[C@@H](Cc1c[nH]cn1)C(=O)O [carnosine, β-alanyl-L-histidine]",perseverative errors on the strategic target detection test,[1],fewer perseverative errors
same,strategic efficiency on the strategic target detection test,[1],significantly improved
same,pK of the carboxylic function,[2],2.6
same,contribution to buffering,horse fibre types; type I fibres,about 20%
same,contribution to buffering,horse fibre types; type IIb fibres,up to 46%
same,Ca^2+ sensitivity,[3],significant increase
same,Ca^2+ release from the sarcoplasmic reticulum,[4],did not affect
same,Ca^2+ sensitivity of the contractile components,[4],increase
same,"Gilliam Autism Rating Scale (total score and Behavior, Socialization, Communication subscales)",[5],statistically significant improvements
same,Receptive One-Word Picture Vocabulary test,[5],statistically significant improvements
same,amount of brain tissue involved in experimentally-produced strokes,mice,significantly reduced
